Experimental data: patent publication US20090281278A1, “MODIFIED MOLECULES WHICH PROMOTE HEMATOPOIESIS” (priority 2006, published 2009)
“Also recorded” adds a separate entry of the source. Bridges are numbered along the chain shown (N, C = ends). Where no end group is shown, it is not given here. [ ]: non-standard residue; d: D form. 1Nal = N[C@@H](Cc1cccc2ccccc12)C(=O)O

Tested on: TF-1 cells
Test: TF-1 proliferation assay (MTT/MTS, number of viable cells)
Assay type: cell-based, human
Settings: for efficacy and potency (EPO mimetic activity) compared with reference peptides: TF-1 proliferation, normalized plots
Procedure: An experiment was performed in a standard TF-1 cell assay as recommended by the European Pharmacopoe for the determination of EPO-like activity in vitro (please also see below). Basically, TF-1 cells (their proliferation being dependent from the presence of EPO-like activity) are cultured in the presence various concentrations of EPO or EPO-mimetic substances. The resulting cell numbers are quantified using colorimetric MTT-assay and photometric measurements.
TF1 cells in logarithmic growth phase (2×10^5-1×10^6 cells/ml grown in RPMI with 20% fetal calf serum (FCS) and 0.5 ng/ml IL-3) were counted, and the number of cells needed to perform an assay were centrifuged (5 min. 1500 rpm) and resuspended in RPMI with 5% FCS without IL-3 at 300 000 cells/ml. Cells were precultured in this (starvation) medium without IL-3 for 48 hours. Before starting the assay the cells were counted again.
Shortly before starting the assay stock solutions of peptides and EPO were prepared. Peptides were weighed and dissolved in RPMI with 5% FCS up to a concentration of 1 mM, 467 μM or 200 μM. EPO stock solutions were 10 nM or 20 nM. 292 μl of these stock solutions were pipetted into one well of a 96 well culture plate—one plate was taken for each substance to be tested. Two hundred μl of RPMI with 5% FCS were pipetted into seventeen other wells in each plate. Ninety-two μl of stock solution were pipetted into a well containing 200 μl medium. The contents were mixed, and 92 μl from this well was transferred to the next, and so forth. This way a dilution series (18 dilutions) of each substance was prepared such that in each consecutive well the concentration was 1:√10 of the concentration in the well before that. From each well 3×50 μl was transferred to three empty wells. This way each concentration of substance was measured in quadruplicate. Note that the uppermost and lowermost line of wells of each plate was left void.
Pre-treated (starved) cells were centrifuged (5 min. 1500 rpm) and resuspended in RPMI with 5% FCS at a concentration of 200 000 cells per ml. […]
To measure the number of live cells per well, ready-to-use […] (Promega, CellTiter 96 Aqueous One Solution Cell Proliferation Assay) was thawed in a 37° C. water bath. […] Twenty-five μl of a 10% SDS solution was added, and plates were measured in an ELISA reader (Genios, Tecan). […]
For optimal results TF-1 cells should be cultured for two days in the absence of any cytokine (starved) before starting the assay. Three days after starting the assay, cell proliferation is measured indirectly by assaying the number of viable cells.
A tetrazolium reagent, called MTS, is added which is reduced to coloured formazan. […] The amount of formazan is measured spectrophotometrically. […]

Row | Substance | efficacy and potency (EPO mimetic activity) compared with reference peptides | agonist behaviour (maximal response compared with EPO) (peptides in their monomeric form)
1 | AGEM40—HES: peptide (AGEM40) HESylated according to the supravalence principle (Ac-CGGTYSCHFGKLT[1Nal]VCKKQRGGGTYSCHFGKLT[1Nal]VCKKQRG-NH2; disulfide 7-16, 27-36 (inferred); not fully specified (residue 1); also: HES (hydroxyethyl starch) conjugate, maleimide-linked) | highly effective and potent | –
2 | Ac-GGTYSCHFGKLT-Na1-VCKKQRG-Am (Ac-GGTYSCHFGKLT[1Nal]VCKKQRG-NH2; cysteine pairing not given here) [BB68] | even more effective than EMP1 and BB49; also recorded: improved effect | –
3 | Ac-GGTYSCHFGKLTWVCKKQGG (cysteine pairing not given here) [BB49] | efficacy and potency in the same range as EMP1 | –
4 | GGTYSCHFGPLTWVCKPQGG [EMP1, reference compound] | – | partial agonists
